Experimental data: patent US9012397B2 (priority 2011, dated 2015)
Like-named read-outs stand apart in the source and are kept apart here.

Assays:
Assay type in all cases: in vivo, human
[1] = tested on: flea bites
Description: (§1) The method of the invention has been carried out with respect to a number of skin disorders. The patients were treated with one of two peptides, each at a concentration of 50 μg/gr cream (unless otherwise indicated):
(§2) The cream was manufactured by Amiga LTD, Israel, and contains the following components:
1. person two was bitten by fleas on various occasions, resulting in an itching sensation. […] The ointment was reapplied after 6 hours.
2. person one who is very sensitive to flea bites was bitten by fleas, resulting in an itching sensation. […] The ointment should be reapplied after 12 hours.

[2] = tested on: Herpes simplex
Description: as §1, §2
5. A person suffered for many years from Herpes simplex on the neck, with no relief from commercial remedies. ZEP3 was applied topically once a day to the lesions. • Results: relief in itching and skin rash within 10-20 min.
6. person two was diagnosed with Herpes simplex.
7. person one was diagnosed with Herpes simplex.
8. person four suffered from Herpes simplex from childhood.
9. A person suffered from Herpes simplex lesions on the lips and face. […] 1-2 applications cause the lesions to disappear.
10. A person suffered from Herpes simplex on the lips, mainly when under pressure. […] The blisters disappeared after 24 hours.
11. A person suffered from Herpes simplex on the lips. ZEP3 (500 μg/gr cream) was topically applied several times during the day on the wound. • Results: the person felt relief after several minutes. The itching and redness lessened immediately and the wound disappeared after 36 hours.
12. 7 subjects suffering from Herpes simplex were treated with ZEP3.
13. A person suffered from Herpes simplex lesions on the lips.
14. A person has a festering Herpes simplex lesion. Generally, 10 days are required for recuperation.
15. A person suffered intermittingly from Herpes simplex on the lips, with blisters.

[3] = tested on: itching; settings: person
Description: as §1, §2
1. A person suffered from a strong itching sensation on the skin all over the body for no apparent reason.
2. A person suffered from a red rash and itching sensation on their breast. ZEP4 (500 μg/gr cream) was applied twice in a period of 2 hours. • Results: relief from itching within 10 minutes.
3. A person suffered from a strong itching sensation in the lower limbs which sometimes spread to the abdomen and back. […] I. Skin Infection

[4] = tested on: rash
Description: as §1, §2
1. A rash appeared on the wrist of person two, apparently as an allergic response to a watch band. Large red spots appeared around the wrist.
2. A rash appeared in the underarm area of a person, apparently due to sweat and rubbing of the bra strap. […] F. Psoriasis

[5] = tested on: Herpes zoster; settings: person, lesions with skin edema on mid back; 50 μg/gr cream, applied 4-5 times
Description: as §1, §2
1. A person was diagnosed with Herpes zoster (shingles), which appeared as a painful, circumferential rash in the abdominal area. The patient had been on antibiotics, with no improvement.
2. A person was diagnosed with Herpes zoster, which appeared as painful lesions with skin edema on the mid back area, appearing several times a year. […] Decrease in the skin rash and the degree of the sore and swelling and a shortening of the time of recovery (healing).

[6] = tested on: psoriasis; settings: person
Description: as §1, §2
1. A person suffered from intermittent psoriasis on their head over many years. […] The patient believes that the frequency of the outbreaks has been reduced.
2. A person suffered from psoriasis on the hands. […] The patient believes that a 20% improvement has occurred over 2 weeks.
3. A person suffered from psoriasis in the anus.
4. A person suffered from extensive psoriasis at various locations. ZEP3 (500 μg/gr cream) was applied to the sores as needed. • Results: the itching ceased within 12 hours.
5. A person suffered from chronic psoriasis on the elbow.
6. A person suffered from severe psoriasis at various locations. They regularly went for treatments to the Dead Sea in Israel.

[7] = tested on: mosquito bites; settings: two males and four females, 30-57 years old; (500 μg/gr cream) as needed
Description: as §1, §2
8. males and four females suffered from mosquito bites. […]
9. 3 subjects suffering from mosquito bites were treated with ZEP3.

[8] = tested on: radiation burns
Description: as §1, §2
4. A person with breast cancer received radiation treatment. The person suffered from radiation burns in a large skin area with blisters and open wounds. ZEP4 was applied directly to the wounds over a period of 12 days, 1-2 times per day. • Results: an immediate (˜1 minute) ease in the itching and burning sensation.
7. person two with breast cancer after mastectomy received radiation treatment. The person suffered from severe radiation burns.

[9] = tested on: burns
Description: as §1, §2
1. A person was lightly burned on the back of the hand which touched a very hot object. ZEP4 was immediately applied to the burn site. • Results: the burn mark disappeared within 1 hour. No additional treatments were necessary.
2. A person was severely burned by boiling water on the palm of the hand. […] At the end of 2 weeks there was no sign of the burn, nor thereafter.
3. person two was lightly burned on their finger from boiling oil. […] No further treatments were necessary.
5. A person was burnt on their hand from an oven. […] The burn took on a light brown color.
6. 4 light burn cases, three from touching a hot surface and one from a chemical substance in a laboratory, were treated with ZEP3.
8. person three with irritated skin on the hand due to the rubbing of a watch band. The irritated skin came into contact with a chemical substance (used as a disinfectant). A severe redness developed similar to a burn, and a strong itching feeing. […] D. Oral Cavity

[10] = tested on: skin infection; settings: person two, wrist infection, allergic reaction to watch band; 50 μg/gr cream several times a day
Description: as §1, §2
1. person two suffered from an infection on the wrist of the left hand, apparently an allergic reaction to a watch band. Large spots appeared around the wrist accompanied by redness.
2. person three suffered from an infection on the wrist of the left hand, apparently an allergic reaction to a watch band. Large spots appeared around the wrist accompanied by redness and itching.
3. 2 cases of infected skin wounds.

[11] = tested on: bee stings
Description: as §1, §2
3. A person was stung by a bee.
4. person four was stung by bees on both hands.
5. person three was stung by bees on both hands.

[12] = person one, 50 μg/gr cream several times
[13] = person two, 50 μg/gr cream several times
[14] = person, lips, 50 μg/gr cream several times a day at onset of pricking sensation
[15] = red rash and itching on breast, 500 μg/gr cream twice in 2 hours
[16] = person, breast cancer radiation burns with blisters and open wounds, 50 μg/gr cream 1-2 times per day for 12 days
[17] = person, severe boiling water burn on palm, 50 μg/gr cream immediately and every day for 2 weeks

## pGLU-ASN-TRP-THR [ZEP4]
[1]; person one very sensitive to flea bites, 50 μg/gr cream
  clinical outcome: almost immediate cessation of the itching sensation
[1]; person two, 50 μg/gr cream several times to bite location
  clinical outcome: immediate cessation of the itching sensation
[2]; person four, 50 μg/gr cream several times
  clinical outcome as compared to treatment with Zovirax®: Rapid drying of the lesion, shrinking of swelling and swift conclusion of the outbreak
[2]; [12]
  clinical outcome: rapid drying of the lesion, as well as shortened scab formation
  time to reduction in the stinging/itching feeling: 10 to 20 min
[2]; [13]
  clinical outcome: the development of the lesion was stopped, scab formation began and the stinging/itching feeling disappeared
  scab formation as compared to treatment with Zovirax®: shortened
[2]; [14]
  clinical outcome: immediate reduction in the pricking sensation
  time until blisters disappeared: 24 h
[2]; person, lips, 200 μg/gr cream at onset of pricking sensation or lesions
  clinical outcome: immediate relief; the disease did not develop further
[3]; [15]
  clinical outcome: The rash disappeared after several hours
  time to relief from itching: ≤ 10 min
[3]; strong itching in lower limbs, 500 μg/gr cream as needed
  clinical outcome: immediate relief
[4]; person two, wrist rash, allergic response to watch band, 50 μg/gr cream several times a day
  clinical outcome: a reduction in the redness and in the diameter of the spots
[4]; person, underarm rash, 50 μg/gr cream twice a day for three days
  clinical outcome: the redness began to decrease shortly after treatment, and after a few days completely disappeared
[5]
  clinical outcome: reduced skin edema and an increase in the intervals between attacks. Decrease in the skin rash and the degree of the sore and swelling and a shortening of the time of recovery (healing)
[6]; psoriasis in the anus, (500 μg/gr cream) once a day
  time until relief is felt: 4 days
[6]; psoriasis in the anus, (500 μg/gr cream) once a day, stopped several days, repeated for 4 days
  clinical outcome: the psoriasis disappeared
[6]; psoriasis on hands, 500 μg/gr cream once a day
  clinical outcome: feels relief; the skin is pleasant feeling and not itchy
[6]; psoriasis on hands, 500 μg/gr cream once a day, over 2 weeks
  improvement as believed by the patient: 20%
[6]; severe psoriasis at various locations, 500 μg/gr cream
  clinical outcome: the itching ceased and the normal skin appearance returned
[7]
  clinical outcome: an immediate relief from the itching sensation was felt
[8]; person two after mastectomy, severe radiation burns, 500 μg/gr cream several times per day
  clinical outcome: felt immediate relief
[8]; [16]
  clinical outcome: The therapeutic effect repeated itself after each treatment
  time to ease in the itching and burning sensation: ~1 min
[9]; person three, irritated skin on hand contacted a disinfectant, burn-like redness and itching, ZEP4 and ZEP3 each 500 μg/gr cream
  clinical outcome: immediate relief from the redness and itching
[9]; person two, light burn on finger from boiling oil, 50 μg/gr cream applied immediately
  clinical outcome: the swelling went down until it completely disappeared
[9]; person, hand burnt from an oven, 50 μg/gr cream applied immediately
  clinical outcome: the pain and redness immediately subsided
[9]; person, light burn on back of hand from hot object, 50 μg/gr cream applied immediately
  time until burn mark disappeared: ≤ 1 h
[9]; [17]
  clinical outcome: blisters began to appear and then shortly disappeared
  time until no sign of the burn: 2 weeks
[10]
  clinical outcome: a decrease in redness and the size of the spots
[11]; person four, both hands stung, 1000 μg/gr cream once to one hand, about 10 minutes after sting
  clinical outcome: the swelling shrunk and the redness decreased to an identical degree on each hand
[11]; person three, both hands stung, 1000 μg/gr cream once to one hand, about 10 minutes after sting
  clinical outcome: the swelling shrunk and the redness decreased to an identical degree on each hand
[11]; person, 50 μg/gr cream, one application 24 hours after the sting
  clinical outcome: immediate reduction in the redness, swelling and pain
